Assay results: the supplement of paper PMC11579375

How the values were obtained:
Test in all cases: area under the viability dose-response curve (AUC) (AUC (arbitrary units, max 500 = no viability loss)); higher = less sensitive (higher viability)
Settings in all cases: exposure time: 120 h; concentration range: 0.1 nM - 10 µM, 6 doses
10F2 = tested on: 10F2 (fetal-II hepatoblastoma organoid with high liver markers)
Method: (§1)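 Patient-derived hepatoblastoma tumor organoids (about 50 organoids per well, 384-well plates, medium with 5% BME) were treated with the PMC pediatric cancer drug library. Each drug was tested in duplicate at 6 concentrations (0.1 nM to 10 µM, 10-fold steps).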

135F2 = tested on: 135F2 (fetal-II hepatoblastoma organoid with high liver markers)
Method: as §1

13E = tested on: 13E (embryonal-type hepatoblastoma organoid)
Method: as §1

13F2 = tested on: 13F2 (fetal-II hepatoblastoma organoid with high liver markers)
Method: as §1

17E = tested on: 17E (embryonal-type hepatoblastoma organoid)
Method: as §1

17F1 = tested on: 17F1 (fetal-I hepatoblastoma organoid with intermediate liver markers)
Method: as §1

22E = tested on: 22E (embryonal-type hepatoblastoma organoid)
Method: as §1

27F1 = tested on: 27F1 (fetal-I hepatoblastoma organoid with intermediate liver markers)
Method: as §1

3E = tested on: 3E (embryonal-type hepatoblastoma organoid)
Method: as §1

8F1 = tested on: 8F1 (fetal-I hepatoblastoma organoid with intermediate liver markers)
Method: as §1

96F1 = tested on: 96F1 (fetal-I hepatoblastoma organoid with intermediate liver markers)
Method: as §1

| Compound | area under the viability dose-response curve (10F2) | area under the viability dose-response curve (135F2) | area under the viability dose-response curve (13E) | area under the viability dose-response curve (13F2) | area under the viability dose-response curve (17E) | area under the viability dose-response curve (17F1) | area under the viability dose-response curve (22E) | area under the viability dose-response curve (27F1) | area under the viability dose-response curve (3E) | area under the viability dose-response curve (8F1) | area under the viability dose-response curve (96F1) |
| --- | --- | --- | --- | --- | --- | --- | --- | --- | --- | --- | --- |
| COc1cc(Nc2c(C#N)cnc3cc(OCCCN4CCN(C)CC4)c(OC)cc23)c(Cl)cc1Cl [Bosutinib] | 429 | 459 | 447 | 397 | 429 | 469 | 471 | 422 | 435 | 450 | 433 |
| Cc1nc(Nc2ncc(C(=O)Nc3c(C)cccc3Cl)s2)cc(N2CCN(CCO)CC2)n1 [Dasatinib] | 473 | 458 | 397 | 379 | 463 | 488 | 461 | 488 | 315 | 473 | 479 |
| Cc1ccc2c(Nc3cccc(Cl)c3F)nccc2c1NC(=O)c1csc2c(N)ncnc12 [Belvarafenib] | 334 | 389 | > 500 | 407 | 499 | > 500 | 474 | 484 | 497 | > 500 | > 500 |
| Nc1ccccc1NC(=O)c1ccc(CNC(=O)OCc2cccnc2)cc1 [Entinostat] | 358 | 455 | 425 | 429 | 428 | 434 | 439 | 462 | 386 | 426 | 483 |
| C[C@@H]1CN(CC(=O)Nc2ccc3c(c2)Cc2cccc(-c4cc(=O)cc(N5CCOCC5)o4)c2S3)C[C@H](C)O1 | 430 | 470 | 493 | 484 | 457 | > 500 | 461 | 456 | > 500 | > 500 | 480 |
| CC[C@H](NC(=O)[C@H](C)NC)C(=O)N1C[C@@H](O)C[C@H]1Cc1c(-c2[nH]c3cc(F)ccc3c2C[C@@H]2C[C@H](O)CN2C(=O)[C@H](CC)NC(=O)[C@H](C)NC)[nH]c2cc(F)ccc12 [Birinapant] | 425 | 483 | 473 | 483 | 434 | 467 | 204 | > 500 | 237 | 468 | 480 |
| CC(C)NC[C@@H](C(=O)N1CCN(c2ncnc3c2[C@H](C)C[C@H]3O)CC1)c1ccc(Cl)cc1 [Ipatasertib] | 433 | 496 | 456 | 442 | 437 | 495 | 433 | 483 | 436 | 434 | 445 |
| CS(=O)(=O)N1CCN(Cc2cc3nc(-c4cccc5[nH]ncc45)nc(N4CCOCC4)c3s2)CC1 [Pictilisib] | 391 | 411 | 413 | 365 | 350 | 493 | 404 | 376 | 380 | 482 | 422 |
| CN(C)C/C=C/C(=O)Nc1ccc(C(=O)N2CCC[C@@H](Nc3ncc(Cl)c(-c4c[nH]c5ccccc45)n3)C2)cc1 [THZ531] | 332 | 367 | 360 | 376 | 374 | 332 | 320 | 336 | 263 | 344 | 340 |
| Cn1cnc2c(F)c(Nc3ccc(Br)cc3F)c(C(=O)NOCCO)cc21 [Binimetinib] | 343 | 396 | 490 | 379 | 424 | 458 | 489 | 499 | > 500 | > 500 | 481 |
| COc1cc(OC)cc(N(CCNC(C)C)c2ccc3ncc(-c4cnn(C)c4)nc3c2)c1 [Erdafitinib] | 448 | 496 | 341 | 323 | 231 | 499 | 345 | 467 | 227 | 489 | 498 |
| CNc1nc(-c2nc3ccc(N4CCN(C)CC4)cc3n2Cc2ccccc2)cn2c(C)nnc12 | 328 | 309 | 411 | 260 | 433 | 460 | 415 | 479 | 321 | > 500 | 492 |
| CC(=O)c1c(C)c2cnc(Nc3ccc(N4CCNCC4)cn3)nc2n(C2CCCC2)c1=O [Palbociclib] | 398 | 431 | 467 | 337 | 373 | > 500 | 460 | 470 | 382 | 499 | 460 |
| CC1(COc2ccc3c(c2)ncn3-c2ccc3cccc(N4CCC(N)CC4)c3n2)COC1 [Crenolanib] | 480 | 448 | > 500 | 446 | 487 | 479 | > 500 | > 500 | 466 | > 500 | 467 |
| COc1cc(CCc2cc(NC(=O)c3ccc(N4CC(C)NC(C)C4)cc3)n[nH]2)cc(OC)c1 (stereo not drawn) [AZD4547] | 476 | 471 | 375 | 376 | 338 | 480 | 370 | > 500 | 308 | > 500 | 475 |
| Cn1ncnc1[C@H]1c2n[nH]c(=O)c3cc(F)cc(c23)N[C@@H]1c1ccc(F)cc1 [Talazoparib] | 367 | 392 | 399 | 328 | 383 | 486 | 444 | 403 | 341 | 438 | 439 |
| CNC(=O)c1cccc(-c2ccc3c(N4CCOC[C@@H]4C)nc(N4CCOC[C@@H]4C)nc3n2)c1 [Vistusertib] | 324 | 407 | 409 | 342 | 392 | 498 | 426 | 407 | 376 | 470 | 460 |
| CC[C@H](Nc1ncnc2[nH]cnc12)c1nc2cccc(F)c2c(=O)n1-c1ccccc1 [Idelalisib] | 492 | > 500 | 497 | 496 | 488 | 495 | 492 | 492 | 491 | 484 | > 500 |
| CCCS(=O)(=O)Nc1ccc(F)c(C(=O)c2c[nH]c3ncc(-c4ccc(Cl)cc4)cc23)c1F [Vemurafenib] | 395 | 498 | 475 | 440 | 496 | 499 | 447 | 499 | 490 | 495 | 490 |
| CC[C@]1(O)C[C@@H]2CN(CCc3c([nH]c4ccccc34)[C@@](C(=O)OC)(c3cc4c(cc3OC)N(C)[C@H]3[C@@](O)(C(=O)OC)[C@H](OC(C)=O)[C@]5(CC)C=CCN6CC[C@]43[C@@H]65)C2)C1 [Vinblastine] | 160 | 176 | 164 | 189 | 183 | 208 | 223 | 194 | 148 | 220 | 156 |
| COc1ncc(-c2nc3c(n2C(C)C)[C@H](c2ccc(Cl)cc2)N(c2cc(Cl)cn(C)c2=O)C3=O)c(OC)n1 [Siremadlin] | 200 | 328 | 383 | 246 | 318 | 395 | 414 | 359 | 306 | 373 | 385 |
| O=c1nc(N2CCOCC2)oc2c(-c3cccc4c3sc3ccccc34)cccc12 [LTURM34] | 393 | 467 | 473 | 484 | 487 | 490 | 433 | > 500 | 486 | 489 | 497 |
| N#CC[C@H](C1CCCC1)n1cc(-c2ncnc3[nH]ccc23)cn1 [Ruxolitinib] | 492 | 491 | > 500 | 487 | 487 | 478 | 440 | > 500 | 462 | > 500 | 490 |
| COc1cc(Nc2ncc3c(n2)-c2ccc(Cl)cc2C(c2c(F)cccc2OC)=NC3)ccc1C(=O)O [Alisertib] | 325 | 369 | 381 | 310 | 339 | 494 | 382 | 436 | 328 | 473 | 416 |
| Cc1nc(-c2cn3c(n2)-c2ccc(-c4cnn(C(C)(C)C(N)=O)c4)cc2OCC3)n(C(C)C)n1 [Taselisib] | 361 | 435 | 388 | 351 | 349 | 493 | 415 | 413 | 305 | 475 | 437 |
| C[C@@H]1COC(Nc2ccc3ncnc(Nc4ccc(OCc5nccs5)c(Cl)c4)c3c2)=N1 [Varlitinib] | 382 | 465 | 476 | 372 | 480 | 447 | 481 | 433 | 485 | 476 | 430 |
| CC(C)C[C@H](NC(=O)[C@H](CCc1ccccc1)NC(=O)CN1CCOCC1)C(=O)N[C@@H](Cc1ccccc1)C(=O)N[C@@H](CC(C)C)C(=O)[C@@]1(C)CO1 [Carfilzomib] | 323 | 194 | 362 | 217 | 247 | 269 | 347 | 332 | 242 | 350 | 355 |
| Cc1ccc(NC(=O)c2ccc(CN3CCN(C)CC3)cc2)cc1Nc1nc(-c2cccnc2)cs1 [Masitinib] | 497 | 473 | 489 | 489 | 462 | > 500 | 474 | > 500 | 483 | > 500 | 484 |
